Test results from US6310217A, “Acylpyrroledicarboxylic acids and acylindoledicarboxylic acids and their derivatives as inhibitors of cytosolic phospholipase A2” (Merckle GmbH, priority 1996, dated 2001).

Legend:
mice = settings: cited from earlier work
cytosolic PLA2 = biological target: T1, cytosolic PLA2 (Bos taurus, UniProt A4IFJ5); assay: Inhibition of cytosolic phospholipase A2 in intact bovine platelets stimulated with calcium ionophore A23187; released arachidonic acid determined by reversed phase HPLC with UV detection; type: cell-based; settings: A23187 stimulation, 5,8,11,14-eicosatetraynoic acid added, test substances normally dissolved in DMSO
T1 construct: endogenous in cells; host or cells: intact bovine platelets
T1 sequence (A4IFJ5 1-749): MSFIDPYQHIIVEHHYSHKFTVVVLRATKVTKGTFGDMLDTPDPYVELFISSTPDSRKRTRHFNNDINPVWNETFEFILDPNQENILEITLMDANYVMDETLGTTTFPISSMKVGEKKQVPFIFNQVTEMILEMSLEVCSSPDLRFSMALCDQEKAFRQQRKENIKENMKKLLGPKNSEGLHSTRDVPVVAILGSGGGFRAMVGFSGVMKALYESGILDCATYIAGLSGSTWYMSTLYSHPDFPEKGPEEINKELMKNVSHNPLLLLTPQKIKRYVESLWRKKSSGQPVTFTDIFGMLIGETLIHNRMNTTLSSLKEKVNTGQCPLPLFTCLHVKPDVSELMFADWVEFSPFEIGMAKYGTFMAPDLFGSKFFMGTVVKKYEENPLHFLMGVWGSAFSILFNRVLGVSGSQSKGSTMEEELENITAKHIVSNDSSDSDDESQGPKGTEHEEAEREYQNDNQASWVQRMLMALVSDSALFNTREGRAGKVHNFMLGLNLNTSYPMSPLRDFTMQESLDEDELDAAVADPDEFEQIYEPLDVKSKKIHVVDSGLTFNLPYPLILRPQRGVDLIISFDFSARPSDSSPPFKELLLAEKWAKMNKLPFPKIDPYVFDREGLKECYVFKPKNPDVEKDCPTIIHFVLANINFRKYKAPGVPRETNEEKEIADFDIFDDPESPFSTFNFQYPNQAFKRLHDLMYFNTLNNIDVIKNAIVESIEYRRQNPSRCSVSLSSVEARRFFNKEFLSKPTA
Description: The efficacy of the compounds according to the invention can be determined on the basis of the inhibition of phospholipase A2. For this purpose, the phospholipaase A2 in intact bovine platelets is stimulated with calcium ionophore A23187, and thus the release of arachidonic acid from the membrane phospholipids is induced. In order to prevent metabolism of the enzyme product arachidonic acid by the cyclooxygenase pathway and the 12-lipoxygenase pathway, in this case the dual cyclooxygenase/12-lipoxygenase inhibitor 5,8,11,14-eicosatetraynoic acid is added. After purification by solid phase extraction, the released arachidonic acid is determined by reversed phase HPLC with UV detection. The inhibition of the enzyme by a test substance is evident from the ratio between the amounts of arachidonic acid formed in the presence and in the absence of the test substance. Further details of the test system are to be found in Example 15.
The efficacy of the compounds according to the invention can be determined from the inhibition of phospholipase A2. The assay method used has already been described (see Lehr M., In-vitro assay for the evaluation of phospholipase A2 inhibitors using bovine platelets and HPLC with UV-detection. Pharm.Pharmacol. Lett. 1992, 2, 176-179). The test substances were normally dissolved in DMSO.

| SMILES | analgesic effect (mice) | IC50 (cytosolic PLA2) [µM] |
| --- | --- | --- |
| Cn1c(C(=O)O)ccc1C(=O)C=Cc1ccccc1 [1-methyl-5-(3-phenylacryloyl)pyrrol-2-ylformic acid] | analgesic effect |  |
| CCCCCCCCCCCC(=O)c1c(C)c(CC(=O)O)n(Cc2cccc(/C=C/C(=O)O)c2)c1C [Example 2, (E)-3-{[2-(Carboxymethyl)-4-dodecanoyl-3,5-dimethyl-pyrrol-1-yl]methyl}cinnamic acid] |  | 4.6 |
| CCCCCCCCCCCC(=O)c1c(C)c(CC(=O)O)n(Cc2cccc(CCC(=O)O)c2)c1C [Example 3, 3-(3-{[2-(Carboxymethyl)-4-dodecanoyl-3,5-dimethyl-pyrrol-1-yl]methyl}phenyl)propionic acid] |  | 3 |
| CCCCCCCCCCCC(=O)c1c(C(=O)O)n(CCOc2cccc(CC(=O)O)c2)c2ccccc12 [Example 13, 1-{2-[3-(carboxymethyl)phenoxy]ethyl}-3-dodecanoyl-indole-2-carboxylic acid] |  | 1.6 |
| CCCCCCCCCCCC(=O)c1c(C(=O)O)n(CCOc2ccc(CC(=O)O)cc2)c2ccccc12 [Example 14, 1-{2-[4-(Carboxymethyl)phenoxy]ethyl}-3-dodecanoyl-indole-2-carboxylic acid] |  | 1.6 |
